Measurements published in US20060116399A1, “Diarylmethylidene piperidine derivatives, preparations thereof and uses thereof” (AstraZeneca AB, priority 2003, published 2006).
Like-named read-outs stand apart in the source and are kept apart here.

Assays:
[1] = target: T1, cloned human δ receptor (Homo sapiens, UniProt P41143); experiment: δ receptor binding assay, displacement of 125I-Deltorphin II
T1 construct: expressed in transfected cells

[2] = target: T2, cloned human μ receptor (Homo sapiens, UniProt P35372); experiment: μ receptor binding assay, displacement of 125I-FK33824
T2 construct: expressed in transfected cells; host or cells: human HEK-293S cells, neomycin resistance
T2 sequence (P35372 whole entry): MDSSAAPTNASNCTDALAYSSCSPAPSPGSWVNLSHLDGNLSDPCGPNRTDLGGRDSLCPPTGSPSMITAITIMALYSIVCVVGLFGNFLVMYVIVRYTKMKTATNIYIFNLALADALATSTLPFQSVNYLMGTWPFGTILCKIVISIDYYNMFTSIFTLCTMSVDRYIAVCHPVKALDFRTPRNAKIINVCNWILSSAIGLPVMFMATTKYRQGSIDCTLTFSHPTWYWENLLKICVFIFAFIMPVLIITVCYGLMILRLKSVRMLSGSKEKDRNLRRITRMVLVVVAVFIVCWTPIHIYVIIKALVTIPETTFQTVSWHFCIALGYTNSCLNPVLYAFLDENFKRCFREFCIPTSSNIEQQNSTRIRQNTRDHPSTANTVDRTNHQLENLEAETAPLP

[3] = target: T3, human δ receptor (Homo sapiens, UniProt P41143); experiment: GTP[γ]35S binding functional assay, HEK-293S membranes; type: biochemical
T3 construct: expressed in transfected cells
T3 sequence (P41143 whole entry): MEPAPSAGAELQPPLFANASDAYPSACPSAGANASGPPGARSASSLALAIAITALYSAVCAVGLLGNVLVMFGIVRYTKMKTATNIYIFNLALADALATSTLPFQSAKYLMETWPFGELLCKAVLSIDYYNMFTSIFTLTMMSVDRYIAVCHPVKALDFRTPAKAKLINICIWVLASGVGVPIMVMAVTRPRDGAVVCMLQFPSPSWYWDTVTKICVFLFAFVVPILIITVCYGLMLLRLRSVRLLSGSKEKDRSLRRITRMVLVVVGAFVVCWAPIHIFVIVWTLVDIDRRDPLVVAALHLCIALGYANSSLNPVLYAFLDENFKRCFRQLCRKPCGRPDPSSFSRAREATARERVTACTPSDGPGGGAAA
Method: Human 293S cells expressing cloned human κ, δ and μ receptors and neomycin resistance are grown in suspension at 37° C. and 5% CO2 in shaker flasks containing calcium-free DMEM10% FBS, 5% BCS, 0.1% Pluronic F-68, and 600 μg/ml geneticin.
Cells are pelleted and resuspended in lysis buffer (50 mM Tris, pH 7.0, 2.5 mM EDTA, with PMSF added just prior to use to 0.1 mM from a 0.1 M stock in ethanol), incubated on ice for 15 min, then homogenized with a polytron for 30 sec. The suspension is spun at 1000 g (max) for 10 min at 4° C. The supernatant is saved on ice and the pellets resuspended and spun as before. The supernatants from both spins are combined and spun at 46,000 g (max) for 30 min. The pellets are resuspended in cold Tris buffer (50 mM Tris/Cl, pH 7.0) and spun again. The final pellets are resuspended in membrane buffer (50 mM Tris, 0.32 M sucrose, pH 7.0). Aliquots (1 ml) in polypropylene tubes are frozen in dry ice/ethanol and stored at −70° C. until use. The protein concentrations are determined by a modified Lowry assay with sodium dodecyl sulfate.
The agonist activity of the compounds is measured by determining the degree to which the compounds receptor complex activates the binding of GTP to G-proteins to which the receptors are coupled. In the GTP binding assay, GTP[γ]^35S is combined with test compounds and membranes from HEK-293S cells expressing the cloned human opioid receptors or from homogenised rat or mouse brain. Agonists stimulate GTP[γ]^35S binding in these membranes. The EC50 and Emax values of compounds are determined from dose-response curves. Right shifts of the dose response curve by the delta antagonist naltrindole are performed to verify that agonist activity is mediated through delta receptors. For human δ receptor functional assays, EC50 (low) is measured when the human δ receptors used in the assay were expressed at lower levels in comparison with those used in determining EC50 (high). The Emax values were determined in relation to the standard δ agonist SNC80, i.e., higher than 100% is a compound that have better efficacy than SNC80.
Rat brain membranes are thawed at 37° C., passed 3 times through a 25-gauge blunt-end needle and diluted in Mhe GTPγS binding (50 mM Hepes, 20 mM NaOH, 100 mM NaCl, 1 mM EDTA, 5 mM MgCl2, pH 7.4, Add fresh: 1 mM DTT, 0.1% BSA). 120 μM GDP final is added membranes dilutions. The EC50 and Emax of compounds are evaluated from 10-point dose-response curves done in 300 μl with the appropriate amount of membrane protein (20 μg/well) and 100000-130000 dpm of GTPγ^5S per well (0.11-0.14 nM). The basal and maximal stimulated binding are determined in absence and presence of 3 μM SNC-80. The assay performed on HEK 293s cells stably expressing cloned Delta receptors is done in a slightly different buffer (50 mM Hepes, 20 mM NaOH, 200 mM NaCl, 1 mM EDTA, 5 mM MgCl2, pH 7.4, Add fresh: 0.5% BSA, no DTT) and with a 3 μM final conc. of GDP.

[4] = target: cloned human κ receptor (Homo sapiens, UniProt P41145); experiment: κ receptor binding assay, displacement of 125I-DPDYN; conditions: Table 1
cloned human κ receptor, sequence (P41145 whole entry): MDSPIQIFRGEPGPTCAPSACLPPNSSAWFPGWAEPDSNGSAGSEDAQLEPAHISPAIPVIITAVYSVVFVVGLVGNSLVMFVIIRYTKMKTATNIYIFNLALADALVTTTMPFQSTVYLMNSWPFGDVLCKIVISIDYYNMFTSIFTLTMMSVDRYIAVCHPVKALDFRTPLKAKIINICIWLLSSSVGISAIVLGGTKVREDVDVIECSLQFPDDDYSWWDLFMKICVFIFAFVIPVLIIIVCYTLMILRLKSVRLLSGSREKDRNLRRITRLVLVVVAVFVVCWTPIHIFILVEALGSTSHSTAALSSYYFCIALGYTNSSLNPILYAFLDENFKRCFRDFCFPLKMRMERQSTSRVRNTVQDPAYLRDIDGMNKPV

[5] = Table 2, lower receptor expression, relative to SNC80, range over several compounds, read-out: Human δ % Emax (low)

T1 sequence (P41143 whole entry): as the sequence (P41143 whole entry) above

| SMILES | IC50 [1] | IC50 [2] | EC50 [3] | Emax [3, 5] | IC50 [4] | Emax ([3]; Table 1, higher receptor expression, relative to standard δ agonist SNC80, read-out: Human δ % EMax (high)) |
| --- | --- | --- | --- | --- | --- | --- |
| CCN(CC)C(=O)c1ccc(C(=C2CCN(Cc3cncs3)CC2)c2cccc(NC(=O)OC)c2)cc1 [Compound 5, methyl 3-{{4-[(diethylamino)carbonyl]phenyl}[1-(1,3-thiazol-5-ylmethyl)piperidin-4-ylidene]methyl}phenylcarbamate] | 0.3 to 0.35 nM | 62.8 to 498 nM | 1.8 to 5.97 nM | 93.7 to 128% |  |  |
| CCN(CC)C(=O)c1ccc(C(=C2CCN(Cc3cccs3)CC2)c2cccc(NC(=O)OC)c2)cc1 [Compound 1, [3-[[4-[(diethylamino)carbonyl]phenyl][1-(2-thienylmethyl)-4-piperidinylidene]methyl]phenyl]-carbamic acid, methyl ester] | 0.3 to 0.35 nM | 62.8 to 498 nM | 1.8 to 5.97 nM | 93.7 to 128% |  |  |
| CCN(CC)C(=O)c1ccc(C(=C2CCN(Cc3ccccc3)CC2)c2cccc(NC(=O)OC)c2)cc1 [Compound 3, [3-[[4-[(diethylamino)carbonyl]phenyl][1-(phenylmethyl)-4-piperidinylidene]methyl]phenyl]-carbamic acid, methyl ester] | 0.48 nM | 28.7 nM | 0.62 nM |  | 188 nM | 91.7% |
| CCN(CC)C(=O)c1ccc(C(=C2CCN(Cc3ccco3)CC2)c2cccc(NC(=O)OC)c2)cc1 [Compound 2, [3-[[4-[(diethylamino)carbonyl]phenyl][1-(2-furanylmethyl)-4-piperidinylidene]methyl]phenyl]-carbamic acid, methyl ester] | 0.3 to 0.35 nM | 62.8 to 498 nM | 1.8 to 5.97 nM | 93.7 to 128% |  |  |
